Broadly, the IC50 is the concentration that inhibits the measured activity by half.

Results on 6 compounds are retold here after patent publication US20040191334A1, “Use of transhinone derivates as cholinesterase inhibitors in treating related diseases” (priority 2003, published 2004).

The target of data set [1] is T1, Human acetylcholinesterase (hAChE) (Homo sapiens, UniProt P22303).
T1 construct: purchased Sigma
Put plainly: Ellman assay, human acetylcholinesterase inhibition. Conditions: for effect on AChE inhibition (in words): selected active components, FIG. 2 and 3. The data set is classed as biochemical. As to the method: The screening for modest cholinesterease inhibitors by the method of Ellman assay was used. Human acetylcholinesterase (hAChE) in buffer was added to the test chemicals/TCM extract followed by the addition of acetylthiocholine (ATCI) substrates and Ellman's reagent, (5′5-dithio-bis-(2-nitrobenzoate), DTNB). The AChE inhibitory activity was monitored by the release of thiocholine which was then reacted with DTNB to form a bright yellow product. The optical densities of the color product formed was spectrophotometrically determined.
After 10 minutes, the optical densities were measured in a 96-well plate reader at 415 nm. Optical densities was inversely proportional to the inhibiting activity.
Selected active components were dissolved in 50% DMSO. 100% DMSO was not recommended in this assay as it lowers the enzyme vitality.
Ellman assay was performed on the selected active components, protocatechualdehyde (MW=138.12), cryptotanshinone (MW=296), salvianic acid B (MW=718) and dihydrotanshinone I (MW=278). 10-fold dilution was made with highest concentration at 40 μM. (FIG. 2)
10-fold dilution was made with the highest concentration at 80 μM. (FIG. 3)
In general terms: Ellman's reagent forms a yellow product with free thiols.

Data set [2] has as its system neuronal cell line-SHSY5Y. Put plainly: MTT cytotoxicity assay on SHSY5Y. Particulars: FIG. 5a. The class given is cell-based. The source says:
(§1) MTT assay was used to check for the toxicity of the selected primary hAChE inhibitors. Since only metabolic active cell can cleave the tetrazolium salt MTT and form a formazen dye. The O.D. measure at 540 nm is directly proportional to the number of viable cell.
(In general: Tetrazolium assays rely on reduction of a dye to a coloured formazan, in cell work by metabolically active cells.)

Data set [3] has as its system mouse neuronal cell line N1E-115. Put plainly: MTT cytotoxicity assay on N1E-115. Particulars: FIG. 5b. The class given is cell-based.
Source text: as §1

In data set [4] the target is T2, butrylcholinesterase (hBChE) (Homo sapiens, UniProt P06276).
T2 construct: purchased Sigma
T2 sequence (P06276 29-602): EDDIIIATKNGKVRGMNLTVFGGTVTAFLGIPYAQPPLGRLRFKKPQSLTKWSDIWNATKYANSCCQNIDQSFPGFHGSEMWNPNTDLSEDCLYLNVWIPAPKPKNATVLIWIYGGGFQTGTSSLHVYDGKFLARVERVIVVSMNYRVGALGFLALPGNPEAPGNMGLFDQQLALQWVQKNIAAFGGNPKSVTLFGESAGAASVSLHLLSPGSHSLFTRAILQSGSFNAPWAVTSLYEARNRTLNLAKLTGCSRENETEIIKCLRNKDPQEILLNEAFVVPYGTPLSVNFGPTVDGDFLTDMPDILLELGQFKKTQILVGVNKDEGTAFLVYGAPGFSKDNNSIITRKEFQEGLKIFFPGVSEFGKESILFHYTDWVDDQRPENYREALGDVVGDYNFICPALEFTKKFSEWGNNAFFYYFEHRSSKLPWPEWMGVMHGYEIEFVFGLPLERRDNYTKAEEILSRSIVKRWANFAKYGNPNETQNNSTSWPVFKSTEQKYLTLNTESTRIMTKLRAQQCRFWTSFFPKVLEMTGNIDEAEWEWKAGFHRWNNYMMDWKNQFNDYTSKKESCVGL
Put plainly: Ellman assay with butrylcholinesterase (specificity). Particulars: hAChE run in parallel; FIGS. 4a and 4b. The class given is biochemical. The text has this: In order to test the specificity of cryptotanshinone and dihydrotanshinone I towards hAChE, butrylcholinesterase (hBChE) instead of hAChE was used in Ellman assay. hBChE is concentrated in […] and it is named as pseudoesterase as it has very homology as hAChE.
Ellman assay was preformed as mentioned, except that hBChE (commercially obtained from Sigma.) was used. Ellman assay using hAChE was also preformed in parallel for comparison.

In a further data set the test system is Gram positive bacteria. Particulars: broad range of Gram positive bacteria; cited from earlier work.
Data set [5] relates to interleukin-12 (IL-12) and interferon-gamma (IFN-gamma) production. Particulars: compared with cryptotanshinone and tanshinone I; cited from earlier work.

T1 sequence (P22303 32-614): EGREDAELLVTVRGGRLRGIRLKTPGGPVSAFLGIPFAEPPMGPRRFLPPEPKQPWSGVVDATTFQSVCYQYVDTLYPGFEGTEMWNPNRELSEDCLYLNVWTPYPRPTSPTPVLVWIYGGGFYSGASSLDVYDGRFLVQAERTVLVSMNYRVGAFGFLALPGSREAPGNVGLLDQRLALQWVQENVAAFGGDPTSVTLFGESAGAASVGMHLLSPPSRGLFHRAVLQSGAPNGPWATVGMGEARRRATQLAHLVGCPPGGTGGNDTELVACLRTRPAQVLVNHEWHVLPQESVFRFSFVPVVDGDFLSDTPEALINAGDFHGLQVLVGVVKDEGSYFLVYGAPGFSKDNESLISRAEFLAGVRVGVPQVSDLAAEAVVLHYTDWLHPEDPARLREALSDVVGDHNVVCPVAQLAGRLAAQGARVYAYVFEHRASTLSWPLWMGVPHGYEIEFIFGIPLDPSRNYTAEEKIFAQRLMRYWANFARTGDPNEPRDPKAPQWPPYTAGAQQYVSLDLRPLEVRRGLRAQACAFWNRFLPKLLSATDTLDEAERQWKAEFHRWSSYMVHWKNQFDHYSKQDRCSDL

In the case of `O=Cc1ccc(O)c(O)c1` [protocatechualdehyde, reference compound], the “effect on AChE inhibition (in words)” value in data set [1] is reported as “little effect”.
In data set [1], `Cc1coc2c1C(=O)C(=O)c1c-2ccc2c(C)cccc12` [tanshinone I] had an IC50 of approximately 70 µM. The MTT cytotoxicity entry in data set [2] (1 μM) is reported as “No significant cytotoxicity”; in data set [3] (N1E-115, 1 μM), “No significant cytotoxicity”.
`Cc1coc2c1C(=O)C(=O)c1c-2ccc2c1CCCC2(C)C` [tanshinone IIA, reference compound]: the “effect on AChE inhibition (in words)” value in data set [1] is “little effect”.
In data set [1], `C[C@H]1COC2=C1C(=O)C(=O)c1c2ccc2c1CCCC2(C)C` [cryptotanshinone] returned an IC50 of 5 to 8 µM. Also, the “selectivity for AChE versus BChE” value in data set [4] was “higher selectivity for AChE than BChE”. In addition, the MTT cytotoxicity entry in data set [2] (1-50 μM) is “No significant cytotoxicity”; in data set [3] (N1E-115, 1-50 μM) it was “No significant cytotoxicity”. In the data set on Gram positive bacteria, the antibacterial activity entry is “antibacterial activity”.
`Cc1cccc2c3c(ccc12)C1=C(C(=O)C3=O)[C@@H](C)CO1` [dihydrotanshinone I]: in data set [1], the IC50 lay in the range of 0.5 to 0.8 µM. Besides, the “selectivity for AChE versus BChE” value in data set [4] is “higher selectivity for AChE than BChE”. Besides, the MTT cytotoxicity result in data set [2] (1 μM) is on record as “No significant cytotoxicity”; in data set [3] (N1E-115, 1 μM), “No significant cytotoxicity”. Further, the antibacterial activity entry in the data set on Gram positive bacteria is on record as “antibacterial activity”. For the same compound, the “inhibition of IL-12 and IFN-gamma production” value in data set [5] is “effectively inhibit”.
On to `O=C(C=Cc1ccc(O)c2c1C(C(=O)OC(Cc1ccc(O)c(O)c1)C(=O)O)C(c1ccc(O)c(O)c1)O2)OC(Cc1ccc(O)c(O)c1)C(=O)O` (centres unmarked) [salvianic acid B, reference compound], for which, in data set [1], the “effect on AChE inhibition (in words)” value was “little effect”.
